Data reported in patent US8110703B2, “Retinoid derivative and pharmaceutical composition and use thereof” (Anhui Medical University, priority 2008, dated 2012).
“And” between values parts separate entries of the source, which are not always exact repeats. Equal values may be shown once. Marks after values point to notes of the source that are not given here.

What was measured:
Assay type in all cases: cell-based
HepG2 cells [1] = test: Cell cycle and apoptosis by flow cytometry, HepG2; settings: HepG2, flow cytometry
A549 cells [2] = test: Differentiation index: CEA secretory volume of A549 cells; settings: A549 culture supernatant, 10 ug/ml, 3 d, DMSO
Procedure: 1.6 Detection of Differentiation Index The cultured A549 cells are randomly divided into 6 10 μg/ml drug groups, cell control groups, solvent control groups (DMSO and ethanol) and 10 μg/ml fenretinide control groups (11 in total). The control groups and drug groups are cultured for 3 days to collect respective 3 tubes of cell culture solutions which are centrifugated at a speed of 4000 r/min for 5 min to take the supernatant and detect the CEA content of the kit by using enzyme kinetics and CEA detection.

HepG2 cells [3] = test: AFP secretory volume of HepG2 cells; settings: HepG2 cells, DMSO
K562 cells = test: Cell cycle analysis by flow cytometer, K562; parameters: S %: dose or concentration left out as unconfirmed; settings: 72 h
Procedure: Retinoic acid derivatives and fenretinide are prepared as a storage solution of 10 mg/mL by anhydrous ethanol and stored at […] and kept out of light.
NB4 cells and K562 cells are inoculated with an initial concentration of 2*10^5/ml in the RPMI1640 culture solution having 10% of calf serum (FBS), 100 u/ml of penicillin, 100 Lg/ml of streptomycin and 2 mmol/L of glutamine for suspension culture (37° C., 5% CO2). Change the solution every 2-3 days.
For the cells above acted by the retinoic acid derivatives and fenretinide ([…]) for 72 h, about 10^6 of them are collected, washed by PBS twice, fixed by 70% of cold ethanol over 24 h, washed by PBS twice, added with 5 ug/ml of propidium iodide for staining and detected by a flow cytometer from which the data are analyzed and processed by the multi-cycle software.

A549 lung cancer cells = test: MTT cell growth and proliferation experiment, A549; parameters: key to Inhibition Rate: (control OD570 − test OD570)/control OD570, as fraction
Procedure: 1.1 Reagents 12 retinoic acid derivatives with the final concentrations of 1 ug/ml, 5 ug/ml and 10 ug/ml are synthesized by the Pharmaceutical College of Anhui Medical University using DMSO and anhydrous ethanol, separately packaged for storage at −20° C. and kept out of the light when used, and the final concentration of DMSO is less than 0.1%. MTT is purchased from Sigma Corp. The Coulter DNA detection kit is presented by the Central Lab of Anhui Provincial Hospital. AFP and γ-GT are provided by the Clinical Lab of No. 105 Hospital of PLA. Apoptosis-Hoechst staining kit is purchased from Beyotime Company.
1.2 Cell Culture A549, and HpeG2 cells are stored by our lab. Cell growth condition: DMEM (from GIBICO Company) culture solution is added with 10% of calf serum (purchased from the Hangzhou Sijiqing Biological Engineering Material Co., Ltd.) to culture in a cell culture incubator (37° C., 5% CO2) with saturated humidity.
1.3 Cell Growth and Proliferation Experiments MTT process is used. Cells in the logarithmic phase are picked and seeded on a 96-hole culture board with a cell concentration of 5×10^7/L. Each hole of the board is 200 ul. The next day after the adherence, the original solution is discarded, and the culture solution is added. The cells are divided into 1 ug/ml retinoic acid derivative groups, 5 ug/ml retinoic acid derivative groups, 10 ug/ml retinoic acid derivative groups, blank control groups, cell control groups, solvent control groups (1‰ DMSO and anhydrous ethanol) (17 in total) according to the concentrations thereof, incubated for 3d, added with MTT (5 g/L) of 20 ul/hole for incubation at 37° C. for 4 h. The original solution is carefully discarded and dried, and DMSO of 20 ul/hole is added to dissolve crystals, followed by vibrating for 10 min and determining the OD value at 570 nm. Each concentration is corresponding to 5 holes, and each group calculates the average of 3 experiments to calculate the inhibition rate to the cell growth according to the optical density (OD) average of each hole in each group and the following equation: inhibition rate %=(control hole OD570−experimental hole OD570)/control hole OD5700*100%. The process above is repeated for three times. The second experiment takes the maximum concentration (10 […]) for culture respectively for 1, 2, 3 and 7 days and repeat for three times.

HepG2 cells [4] = test: γ-GT specific activity of HepG2 cells; settings: DMSO
A549 cells [5] = test: Cell cycle and apoptosis by flow cytometry, A549; settings: A549, 10 μg/ml, 3 days; for Apoptosis Rate (%) / G0-G1 (%) / G2-M (%) / S %: PI flow cytometry
Procedure: 1.4 Detection of Cell Cycle and Apoptosis by Flow Cytometry A549 cells in the logarithmic phase are collected, regulated with the concentrations thereof to 8×10^7/L, inoculated in a 6-hole board, cultured in an incubator (37° C. and 5% CO2). After the cells are adhered, the culture solution is discarded, and a culture solution having drugs with the corresponding concentrations is added and divided into 10 μg/ml drug groups, 10 μg/ml fenretinide groups, cell control groups, solvent control groups (1‰ DMSO and anhydrous ethanol) (11 in total). After 3 days, each group of cells is normally digested, collected, blown into single cell suspension, washed by cold PBS twice, and re-suspend by 10 μl PBS. Fixing and member breaking agents and a PI staining solution are added according to the Coulter DNA detection kit and reacted with one another at the room temperature and out of light for 30 min for machine detection. Each sample detects 10000 cells and repeats for three times, and the data are analyzed by Analysis software for the ratio during the G0-G1, S and G2-M periods and the ratio of apoptotic cells.

[6] = A549, MTT OD 570 nm, 1 ug/ml, 3 d, solvent DMSO (D)
[7] = A549, MTT OD 570 nm, 5 ug/ml, 3 d, solvent DMSO (D)
[8] = A549, MTT OD 570 nm, 10 ug/ml, 3 d, solvent DMSO (D)
[9] = A549, MTT time gradient, 10 ug/ml, 1 d
[10] = A549, MTT time gradient, 10 ug/ml, 1 d, fraction
[11] = A549, MTT time gradient, 10 ug/ml, 2 d
[12] = A549, MTT time gradient, 10 ug/ml, 2 d, fraction
[13] = A549, MTT time gradient, 10 ug/ml, 3 d
[14] = A549, MTT time gradient, 10 ug/ml, 3 d, fraction
[15] = A549, MTT time gradient, 10 ug/ml, 7 d
[16] = A549, MTT time gradient, 10 ug/ml, 7 d, fraction
[17] = A549, MTT, 1 ug/ml, 3 d, solvent DMSO (D), given as fraction
[18] = A549, MTT, 5 ug/ml, 3 d, solvent DMSO (D), given as fraction
[19] = A549, MTT, 10 ug/ml, 3 d, solvent DMSO (D), given as fraction

CC1=C(/C=C/C(C)=C/C=C/C(C)=C/C(=O)Nc2cccc(OC(F)(F)F)c2)C(C)(C)CCC1 [Example 6a-02, (3-trifluoromethoxyphenyl)-(all-trans)-3,7-dimethyl-9-(2,6,6-trimethyl-1-cyclohexen-1-yl)-2,4,6,8-nonatetraenoic acid amide]
Apoptosis Rate (%) (HepG2 cells [1]): 15.7* %
G0-G1 (%) (HepG2 cells [1]): 57.5%
G2-M (%) (HepG2 cells [1]): 2.61%
S % (HepG2 cells [1]): 25.4%
CEA (A549 cells [2]): 3.5 µg/L
AFP (HepG2 cells [3]): 15.6 µg/L
G1 % (K562 cells): 32.2%
G2 % (K562 cells): 10.9%
S % (K562 cells): 56.8%
OD Value (x ± s) (A549 lung cancer cells; [6]): 1.637 ± 0.146 and 1.614 ± 0.146
OD Value (x ± s) (A549 lung cancer cells; [7]): 1.613 ± 0.120 and 1.580 ± 0.096
OD Value (x ± s) (A549 lung cancer cells; [8]): 1.362 ± 0.077 and 1.498 ± 0.218
OD Value (x ± s) (A549 lung cancer cells; [9]): 0.774 ± 0.030
Inhibition Rate (A549 lung cancer cells; [10]): 0.156
OD Value (x ± s) (A549 lung cancer cells; [11]): 1.065 ± 0.045
Inhibition Rate (A549 lung cancer cells; [12]): 0.272
OD Value (x ± s) (A549 lung cancer cells; [13]): 0.408 ± 0.028
Inhibition Rate (A549 lung cancer cells; [14]): 0.561
OD Value (x ± s) (A549 lung cancer cells; [15]): 0.666 ± 0.049
Inhibition Rate (A549 lung cancer cells; [16]): 0.679
Inhibition Rate (A549 lung cancer cells; [17]): 0.123 and 0.135
Inhibition Rate (A549 lung cancer cells; [18]): 0.136 and 0.154
Inhibition Rate (A549 lung cancer cells; [19]): 0.270 and 0.197
γ-GT (HepG2 cells [4]): 42.3 ± 2.0 U/L
Apoptosis Rate (%) (A549 cells [5]): 9.79%
G0-G1 (%) (A549 cells [5]): 70.0%
G2-M (%) (A549 cells [5]): 1.71%
S % (A549 cells [5]): 19.0%

CC1=C(/C=C/C(C)=C/C=C/C(C)=C/C(=O)Nc2cccc(C(F)(F)F)c2)C(C)(C)CCC1 [Example 3a-02, (3-trifluoromethylphenyl)-(all-trans)-3,7-dimethyl-9-(2,6,6-trimethyl-1-cyclohexen-1-yl)-2,4,6,8-nonatetraenoic acid amide]
Apoptosis Rate (%) (HepG2 cells [1]): 30.2* %
G0-G1 (%) (HepG2 cells [1]): 40.3%
G2-M (%) (HepG2 cells [1]): 2.71%
S % (HepG2 cells [1]): 27.9%
CEA (A549 cells [2]): 2.8 µg/L
AFP (HepG2 cells [3]): 15.6 µg/L
G1 % (K562 cells): 39.7%
G2 % (K562 cells): 6.0%
S % (K562 cells): 54.2%
OD Value (x ± s) (A549 lung cancer cells; [6]): 1.551 ± 0.083 and 1.517 ± 0.100
OD Value (x ± s) (A549 lung cancer cells; [7]): 1.510 ± 0.193 and 1.357 ± 0.159
OD Value (x ± s) (A549 lung cancer cells; [8]): 1.296 ± 0.192 and 0.939 ± 0.040
OD Value (x ± s) (A549 lung cancer cells; [9]): 0.617 ± 0.072
Inhibition Rate (A549 lung cancer cells; [10]): 0.327
OD Value (x ± s) (A549 lung cancer cells; [11]): 0.703 ± 0.025
Inhibition Rate (A549 lung cancer cells; [12]): 0.519
OD Value (x ± s) (A549 lung cancer cells; [13]): 0.229 ± 0.010
Inhibition Rate (A549 lung cancer cells; [14]): 0.753
OD Value (x ± s) (A549 lung cancer cells; [15]): 0.106 ± 0.035
Inhibition Rate (A549 lung cancer cells; [16]): 0.949
Inhibition Rate (A549 lung cancer cells; [17]): 0.169 and 0.187
Inhibition Rate (A549 lung cancer cells; [18]): 0.191 and 0.273
Inhibition Rate (A549 lung cancer cells; [19]): 0.305 and 0.497
γ-GT (HepG2 cells [4]): 35.6 ± 1.0 U/L
effect on the apoptosis of A549 cells (ranking in words) (A549 cells [5]): most greatly effects on the apoptosis of A549 cells
Apoptosis Rate (%) (A549 cells [5]): 40.9%
G0-G1 (%) (A549 cells [5]): 35.1%
G2-M (%) (A549 cells [5]): 1.62%
S % (A549 cells [5]): 23.6%
